Activity calls are given as the source filed them. No rule for the calls is given here.
Experiment: blockers of an Epstein-Barr virus protein-peptide interaction – biochemical, fluorescence polarization, dose response (AID 1419)
Conditions: cell-free protein-peptide binding, 2 h; for fold change: measured here: P channel fold over control, at 54 µM

Compound: O=C(OCCN1C(=O)c2cccc3c(N4CCOCC4)ccc(c23)C1=O)c1cccc(Cl)c1
- IC50: 2.52 µM
- fold change: 56.6

Compound: O=C1C2C3C=CC(C3=C(c3ccccc3)c3ccccc3)C2C(=O)N1Cc1ccccc1 (stereo not given)
- IC50: > 54 µM (inactive)
- fold change: 0.99

Compound: O=C(O)COc1ccc(/C=N/NC(=O)c2ccc(-c3csc(Nc4ccc(Cl)cc4)n3)cc2)cc1
- IC50: 14.7 µM
- fold change: 1.13

Compound: O=C1NC(=O)[C@@H]2C3c4ccccc4C=CN3[C@H](C(=O)c3cccs3)[C@H]12 (stereo not given in full)
- IC50: 4.84 µM
- fold change: 3.36

Compound: CCCN1C(=O)/C(=C/C=C2\N(CC)c3ccccc3C2(C)C)SC1=S
- IC50: 0.95 µM
- fold change: 12

Compound: O=C1/C(=C/c2ccco2)SC(=S)N1c1cccnc1
- IC50: > 54 µM (inactive)
- fold change: 1.09

Compound: CCCCOc1ccc(-c2cc(C(F)(F)F)c(C#N)c(SCC(=O)O)n2)cc1
- IC50: 6.68 µM
- fold change: 4

Compound: N#CC(C#N)=Cc1ccc(-c2ccccc2F)o1
- IC50: 5.06 µM
- fold change: 18.8

Compound: COC(CNC(=O)c1ccc2c3c(onc13)-c1ccccc1C2=O)OC
- IC50: < 0.42 µM
- fold change: 137

Compound: Cc1ccc(C(=O)ONc2ccc(N=NC(=O)c3ccccc3O)cc2)cc1
- IC50: 4.35 µM
- fold change: 0.99

Compound: CCN1/C(=C2\SC(=S)N(Cc3ccccc3)C2=O)Sc2ccccc21
- IC50: > 54 µM (inactive)
- fold change: 2.96

Compound: Fc1ccc(C2=CC(c3ccc(Br)o3)n3ncnc3N2)cc1 (stereo not given)
- IC50: 2.62 µM
- fold change: 3.2

Compound: C=C1c2cc(OC)ccc2NC(=O)N1CC
- IC50: 8.9 µM
- fold change: 1.91

Compound: COc1ccc(/C=C2\N=C(c3c(-c4ccccc4)noc3C)OC2=O)cc1OC
- IC50: 15.9 µM
- fold change: 3.56

Compound: CN(C)c1ncnc2c1NC1=C(S2)C(=NCCCC(=O)O)CC(C)(C)C1
- IC50: 5.71 µM
- fold change: 3.35

Compound: Nc1c(NCCC2=CCCCC2)c(=O)[nH]c(=O)n1Cc1ccccc1
- IC50: > 54 µM (inactive)
- fold change: 1.7

Compound: Cc1c2ccccc2nc2c(F)c(NC(C)C)c(F)c(F)c12
- IC50: < 0.42 µM
- fold change: 4.96

Compound: O=C(N/N=C/c1ccccc1Cl)c1nc2ccc([N+](=O)[O-])cc2c(=O)[nH]1
- IC50: > 54 µM (inactive)
- fold change: 0.977

Compound: CCN(CC)c1nc2ccccc2nc1C(C#N)C(=O)NCCc1ccccc1 (stereo not given)
- IC50: 1.37 µM
- fold change: 22

Compound: CCOC(=O)c1[nH]cnc1N=Nc1c(O)ccc2ccccc12
- IC50: 7.35 µM
- fold change: 2.68

Compound: Cc1ccc(C)n1-c1cc(S(=O)(=O)N2CCOCC2)ccc1N1CCCC1
- IC50: > 54 µM (inactive)
- fold change: 1.02

Compound: CC1=CC(=C(C#N)c2nc3ccccc3s2)C=C(C)N1c1ccc(F)cc1F
- IC50: 3.98 µM
- fold change: 11.2

Compound: O=C(c1nc2n(n1)C(c1ccc(Cl)cc1)C=C(c1ccccc1)N2)N1CCOCC1 (stereo not given)
- IC50: 2.27 µM
- fold change: 5.19

Compound: C(=N\NC1=Nc2cccc3cccc1c23)/c1ccccc1
- IC50: 16.9 µM
- fold change: 11.4

Compound: CCn1c(C)cc(C=C2C(=O)c3ccccc3C2=O)c1C
- IC50: 16.2 µM
- fold change: 8.23

Compound: COc1cc(C=C2C(=O)c3ccccc3C2=O)cc(OC)c1OC
- IC50: > 54 µM (inactive)
- fold change: 1.06

Compound: COc1cc(/C=C2/C(=O)c3cccc([N+](=O)[O-])c3C2=O)c(Br)cc1O
- IC50: > 54 µM (inactive)
- fold change: 0.647

Compound: CCOCCCNc1nc2c(C)cccn2c(=O)c1/C=C1\SC(=S)N(CC(C)C)C1=O
- IC50: > 54 µM (inactive)
- fold change: 1.58

Compound: Cc1ccc2c3c(cccc13)-c1ccccc1C2=O
- IC50: 2.37 µM
- fold change: 2.72

Compound: CC(=O)Oc1ccc2c(c1)O/C(=C\c1ccncc1)C2=O
- IC50: 3.08 µM
- fold change: 10.9

Compound: CC1=CC(=C(C#N)c2nc3ccccc3s2)C=C(C)N1c1ccc(F)cc1
- IC50: 7.09 µM
- fold change: 38.9

Compound: Cc1ccc(-c2nc(SCC(=O)Nc3ccccc3OC(F)F)c3c(C)c(C(=O)O)sc3n2)cc1
- IC50: 18.2 µM
- fold change: 1.05

Compound: COc1ccc(Cn2c3ccc(OC)cc3c3nc4ccccc4nc32)cc1
- IC50: 3.27 µM
- fold change: 3.38

Compound: Clc1ccc(C2=CC(c3ccco3)n3ncnc3N2)cc1 (stereo not given)
- IC50: 3.9 µM
- fold change: 3.17

Compound: C=CCc1cccc(C=Nc2cc(Br)ccc2O)c1O
- IC50: 5.72 µM
- fold change: 27.4

Compound: CC(C)Oc1ccc(NC(=O)CCC(=O)O)cc1
- IC50: > 54 µM (inactive)
- fold change: 1.01

Compound: O=[N+]([O-])c1ccc(/C=C/c2nc3ccc([N+](=O)[O-])cc3[nH]2)cc1
- IC50: 2.48 µM
- fold change: 1.15

Compound: O=C(N/N=C/c1cccc(F)c1)c1cc(-c2ccco2)nc2ccccc12
- IC50: 3.61 µM
- fold change: 1.06

Compound: Cc1cc(/C=C2\SC(=S)N(Cc3ccco3)C2=O)c(C)n1-c1cccnc1
- IC50: 8.64 µM
- fold change: 18.3

Compound: CS(=O)(=O)n1nc(-c2ccc(Cl)cc2)nc1SCc1ccccc1
- IC50: > 54 µM (inactive)
- fold change: 1.16

Compound: CCN(CC)c1ccc2cc(S(=O)(=O)c3ccc(C)cc3)c(=O)oc2c1
- IC50: 6.25 µM
- fold change: 36.6

Compound: O=C(COC(=O)c1ccc(NS(=O)(=O)c2cccs2)cc1)NCc1ccco1
- IC50: > 54 µM (inactive)
- fold change: 1.01

Compound: O=C(C1=NN(c2ccccc2)C2C(=O)N(c3ccccc3)C(=O)C12)c1ccccc1 (stereo not given)
- IC50: 6.24 µM
- fold change: 3.88

Compound: CC(C)c1ccc(/C=C/C(=O)n2nnc3ccccc32)cc1
- IC50: > 54 µM (inactive)
- fold change: 0.857

Compound: CCOc1ccc(NC(=O)c2cc3c(C)nc4ccccc4c3o2)cc1
- IC50: > 54 µM (inactive)
- fold change: 0.947

Compound: Cc1nn(-c2ccccc2)c(N2CCCC2)c1/C=C1\N=C(c2ccc(F)cc2)OC1=O
- IC50: 7.44 µM
- fold change: 5.64

Compound: O=C1c2cccc3c(O)ccc(c23)C(=O)N1Cc1ccccc1
- IC50: < 0.42 µM
- fold change: 138

Compound: CN(C)c1ccc(/C=C2\CCC/C(=C\c3ccccc3)C2=O)cc1
- IC50: 14.5 µM
- fold change: 10.6

Compound: CN1C=CC2=C(C#N)C(N)C(C#N)(C#N)C(c3ccccc3)C2C1 (stereo not given)
- IC50: 4.53 µM
- fold change: 3.69

Compound: CCNc1ccc2noc3c2c1C(=O)c1ccccc1-3
- IC50: < 0.42 µM
- fold change: 235

Compound: CCOc1cccc(C2C(C(=O)c3ccc(C)o3)=C(O)C(=O)N2c2nccs2)c1 (stereo not given)
- IC50: < 0.42 µM
- fold change: 8.6

Compound: O=C1CCCC2=C1Sc1ccc(Cl)cc1N2
- IC50: 5.79 µM
- fold change: 2.69

Compound: O=C(O)c1ccccc1C1=Nc2ccc(O)cc2Oc2cc(O)ccc21
- IC50: < 0.42 µM
- fold change: 14.2

Compound: CCOC(=O)c1c(=O)n(O)c2ccc(OC)cc2[n+]1[O-]
- IC50: 8.11 µM
- fold change: 1.8

Compound: Cc1ccc2oc(=O)c(/C=C(\O)c3ccccc3)nc2c1
- IC50: 35.4 µM (inactive)
- fold change: 2.39

Compound: Cc1cccc(-n2c(SCc3cc(=O)n4ccsc4n3)nc3ccccc32)c1
- IC50: 2.79 µM
- fold change: 1.78

Compound: COC(=O)c1cc2n3ccccc3c(C)c(-c3ccccc3)c-2c1C(=O)OC
- IC50: 2.69 µM
- fold change: 4.46

Compound: Nc1c(C(=O)NCC2CCCO2)sc2nc3c(c(-c4ccco4)c12)CC/C3=C\c1ccco1 (stereo not given)
- IC50: < 0.42 µM
- fold change: 3.22

Compound: COc1ccc(N=Cc2cc(Cc3ccccc3Cl)cc([N+](=O)[O-])c2O)cc1OC
- IC50: 13.8 µM
- fold change: 2.41

Compound: O=C(NNC1=Nc2cccc3cccc1c23)c1ccc(Br)cc1
- IC50: > 54 µM (inactive)
- fold change: 3.27

Reference: PubChem BioAssay AID1419 (Emory University Molecular Libraries Screening Center, 2008)
